Assay results taken from paper PMC10206040, “Identification of novel anti-amoebic pharmacophores from kinase inhibitor chemotypes” (Frontiers in Microbiology, 2023).
Read-outs that look alike come from different tables or passages of the source. Values belong to the compound of their own block, whether it stands above or below them.

Key:
[1] = system: Balamuthia mandrillaris (CDC:V039; ATCC 50209) trophozoites; test: CellTiter-Glo 2.0 trophocidal assay, B. mandrillaris; format: cell-based; conditions: Balamuthia mandrillaris, ATCC50209, 72 h
Text: For sub-culturing, 0.25% Trypsin–EDTA (Gibco) cell detachment reagent was used to detach the cells from the culture flasks.

[2] = system: Acanthamoeba castellanii T4 isolate (ATCC 50370) trophozoites; test: CellTiter-Glo 2.0 trophocidal assay, A. castellanii; format: cell-based; conditions: Acanthamoeba castellanii, ATCC50370, 72 h, logarithmic trophozoites, 72 h, n = 3; read-out: Acanthamoeba castellanii EC50 ± SD
Text: This isolate was purchased from American Type Culture Collection (ATCC). […] For sub-culturing, cells were mechanically harvested to detach the cells from the culture flasks.

[3] = system: Naegleria fowleri (ATCC 30215) trophozoites; test: microbe, parasite or virus in culture
Method: Trophozoites were routinely grown axenically at 34°C, 5% CO2, in Nelson’s complete medium (NCM) in non-vented 75 cm^2 tissue culture flasks (Olympus), until the cells were 80–90% confluent. For sub-culturing, cells were placed on ice to detach the cells from the culture flasks. […] Complete NCM media is prepared by the addition of 10% fetal bovine serum (FBS) and 100 U/mL penicillin, and 100 μg/mL streptomycin antibiotics.
Trophozoites were routinely cultured as described above and only logarithmic trophozoites were used.
All assays were incubated at each of the parasites’ representative growth temperatures, described above, for 72 h. At the 72-h time point, 25 μL of CellTiter-Glo 2.0 reagent was added to all wells of the 96-well plates by hand. The plates were protected from light and contents were mixed using an orbital shaker at 300 rpm at room temperature for 2 min to induce cell lysis. After shaking, the plates were equilibrated at room temperature for 10 min to stabilize the luminescent signal. The ATP luminescent signal (relative light units; RLUs) were measured […] with a SpectraMax I3X plate reader (Molecular Devices, Sunnyvale, CA, United States). […] Values reported are from a minimum of three biological replicates with standard deviation.

[4] = system: MRC5 cells; test: Human fetal lung fibroblast (MRC5) cell cytotoxicity assay (resazurin); conditions: Table S2
Method: Intermediate plates were made as described, adding 95 μL of DMEM complete media to 5 μL of compound per well setting a 5% DMSO amount. Log-phase MRC5 cells were removed from a T-75 TC flask using TrypLE® Express (Thermo®) and dispersed by gentle pipetting. Cell density was adjusted to working concentration in prewarmed DMEM medium: 25,000 cells in 90 μL of culture were plated in 96-well transparent Nunclon plates and allowed to settle for 24 h at 37°C and 5% CO2. […] Plates were incubated for 48 h at 37°C and 5% CO2. At 4 h prior to fluorescence measurement, 20 μL of 500 μM resazurin solution was added.
A four-parameter equation was used to fit the dose–response curves and determination of EC50 by SigmaPlot ® 13.0 software. Assays were performed in duplicate at least twice for positive compounds, to achieve a minimal […] per dose response.

[5] = logarithmic trophozoites, 72 h, n = 3, read-out: Balamuthia mandrillaris EC50 ± SD
[6] = Naegleria fowleri, ATCC30215, 72 h, read-out: Naegleria fowleri EC50 ± SD, logarithmic trophozoites, 72 h, n = 3 (converted)
[7] = read-out: Balamuthia mandrillaris EC50 ± SD, logarithmic trophozoites, 72 h, n = 3 (converted)
[8] = Naegleria fowleri, 72 h, read-out: Naegleria fowleri EC50 ± SD, logarithmic trophozoites, 72 h, n = 3 (converted)

EC50 [3, 6]: 0.02 ± 0.01 µM
SMILES: CC[C@H]1OC(=O)[C@H](C)[C@@H](O[C@H]2C[C@@](C)(OC)[C@@H](O)[C@H](C)O2)[C@H](C)[C@@H](O[C@@H]2O[C@H](C)C[C@H](N(C)C)[C@H]2O)[C@](C)(O)C[C@@H](C)CN(C)[C@H](C)[C@@H](O)[C@]1(C)O [Azithromycin, reference compound]
EC50 [1, 5]: > 20 µM | EC50 [2]: 0.26 ± 0.14 µM

EC50 [3, 6]: 5.8 ± 0.22 µM
SMILES: [H]/N=C(\N/C(=N/[H])NCCCCCCNC(=N)NC(=N)Nc1ccc(Cl)cc1)Nc1ccc(Cl)cc1 [Chlorhexidine, reference compound]
EC50 [1, 5]: 1.6 ± 0.17 µM | EC50 [2]: 11 ± 3.5 µM

SMILES: Nc1cc(-c2cc3c4c(n[nH]c4c2)Nc2ccccc2O3)ncn1 [Compound 1b]
EC50 [1, 5]: 1.8 ± 0.46 µM | EC50 [2]: 12 ± 8.2 µM

EC50 [3, 6]: 13 ± 6.7 µM
SMILES: COc1ccn2c(Nc3ccccc3F)c(-c3cnn(C)c3)nc2c1 [Compound 3b, N-(2-Fluorophenyl)-7-methoxy-2-(1-methyl-1H-pyrazol-4-yl)imidazo[1,2-a]pyridin-3-amine]
MRC5 TC50 ± Standard Deviation [4]: 64 µM

EC50 [3, 6]: > 20 µM
SMILES: Brc1ccc2nc(-c3ccccn3)c(Nc3ccc4c(c3)OCO4)n2c1 [Compound 3e]
EC50 [2]: > 20 µM

EC50 [3, 6]: > 20 µM
SMILES: CC(C)Nc1c(-c2ccccn2)nc2cc(C(F)(F)F)ccn12 [Compound 3f, N-(Propan-2-yl)-2-(pyridin-2-yl)-7-(trifluoromethyl)imidazo[1,2-a]pyridin-3-amine]
MRC5 TC50 ± Standard Deviation [4]: 53 µM

EC50 [3, 6]: ≤ 14 µM | EC50 ([3]; read-out: Naegleria fowleri EC50 ± SD, logarithmic trophozoites, 72 h, n = 3): 8.4 ± 0.71 µM
SMILES: Cn1cc(-c2cnc3[nH]cc(-c4cccnc4)c3c2)cn1 [Compound 4d]

EC50 [3, 6]: > 20 µM
SMILES: N#Cc1cccc(-c2c[nH]c3ncc(-c4ccncc4)cc23)c1 [Compound 4f]

SMILES: Cn1cc(-c2ccnc3[nH]c(-c4ccc(C5CCCN5)cc4)cc23)cn1 (stereo not shown) [Compound 5b]
EC50 [1, 7]: 7.25 ± 0.7 µM

SMILES: Cn1cc(-c2ccnc3[nH]c(-c4ccc(C(N)=O)cc4)cc23)cn1 [Compound 5e]
EC50 [1, 7]: 1.8 ± 0.24 µM

EC50 [3, 6]: 11 ± 0.6 µM
SMILES: FC(F)(F)CNc1nc(Nc2ccsc2)nc2[nH]cnc12 [Compound 6a]

EC50 [3, 6]: 14 ± 5.7 µM
SMILES: c1nc2c(N3CCC3)nc(Nc3ccsc3)nc2[nH]1 [Compound 6b]

EC50 [3, 6]: > 20 µM
SMILES: Cn1cc(Nc2nc(NCC(F)(F)F)c3ncn(C)c3n2)cn1 [Compound 6c]

EC50 [3, 6]: > 20 µM
SMILES: c1nc2c(NCCN3CCCC3)nc(Nc3ccsc3)nc2[nH]1 [Compound 6d]

lipophilic ligand efficiency (LLE) ([3]; N. fowleri, LLE calculated as pEC50-LogD7.4): 1.40 | EC50 [3, 6]: 16 ± 4.1 µM
SMILES: CN1CCN(c2ncc(-c3ccc4c(Nc5ccc(OCc6cccc(F)c6)c(Cl)c5)ccnc4c3)cn2)CC1 [Compound 7a]

SMILES: CN1CC2(CCN(c3ncc(-c4ccc5c(Nc6cnccn6)ccnc5c4)cn3)C2)C1 [Compound 7b]
EC50 [1, 5]: 1.4 ± 0.17 µM

SMILES: CC(=O)c1ccc2c(c1)c1cc(C(C)=O)ccc1n2CCNC1CCCCC1 [Compound 8a]
EC50 [1, 7]: 6.8 ± 0.1 µM

EC50 [3, 6]: 8.8 ± 0.71 µM
SMILES: CC(=O)c1cc2c3cc(C(C)=O)c(O)cc3n(CCNC(C)C)c2cc1O [Compound 8b]
EC50 [1, 5]: 11 ± 0.35 µM

SMILES: CC(=O)c1ccc2c(c1)c1cc(C(C)=O)ccc1n2CCN1CCCCC1 [Compound 8d]
EC50 [1, 7]: 12 ± 0.26 µM | EC50 [3, 8]: 4.3 ± 0.22 µM

EC50 [3, 6]: 17 ± 0.65 µM
SMILES: CC(=O)c1cc2c3cc(C(C)=O)c(O)cc3n(CCCN(C)C)c2cc1O [Compound 8e]

EC50 [3, 6]: 17 ± 0.2 µM
SMILES: CC(=O)c1ccc2c(c1)c1cc(C(C)=O)ccc1n2CCCN(C)C [Compound 8f]
EC50 [1, 5]: 19 ± 1.1 µM

SMILES: CC(=O)c1ccc2c(c1)c1cc(C(C)=O)ccc1n2CCNC1CCCCCC1 [Compound 8h]
EC50 [1, 7]: 7.3 ± 0.38 µM

SMILES: CC(=O)c1ccc2c(c1)c1cc(C(C)=O)ccc1n2CCN1CC(C)C1 [Compound 8i]
EC50 [1, 7]: 7.3 ± 0.28 µM | EC50 [3, 8]: 18 ± 0.45 µM
